# Assay results reported in patent US20220062300A1 (priority 2019, published 2022).
# Assays:
# [1] = tested on: formalin-induced pain behavior; assay: Formalin test (1% formalin, hind paw shakes) with isobologram analysis; type: in vivo; settings: IM, rat; for dose giving maximal antinociception effect: both phases of the formalin test; for dose reaching a significant difference in % antinociception: phase 2 of the formalin test; for ED30 (dose delivering 30% of the maximal effect): single drug, 60 min before formalin, % antinociception
# Description: Male Wistar rats aged 7-8 weeks weighting 175-199 g were used in the experiments. Rats had free access to food and water before the experiments. All experimental procedures complied with the Guidelines on Ethical Standards for investigations of Experimental Pain in Animals (IASP, 1983). Each rat was used only once and was sacrificed in a CO2-saturated glass bell. The formalin model is used mainly with rodents. The test consists in the subcutaneous administration of formalin (formaldehyde in concentrations ranging from 1 to 5%), in a 20-25 μL volume for mice 30-100 μL for rats. The injection is usually administered in the dorsal surface of the right hind paw, and animals are sacrificed once the test is finished. The formalin test describes several behaviors, such as biting, licking and shaking the injected hind paw. Hind paw shaking is the most used parameter for quantifying the degree of pain. The formalin test in rodents is biphasic. […] The second phase (tonic or inflammatory) onsets 15-20 minutes after the injection and lasts 20-40 minutes. The 1%-formalin injection induced the typical shaking behavior, characterized by a brisk withdrawal or bending of the injected hind paw. The temporal course was assessed in this figure after the 1%-formalin injection, and the biphasic (phase 1 and 2) behavior characterizing this model was observed. An isobologram analysis was employed to assess aceclofenac and betamethasone interactions. […] When connecting the dots an additivity line is obtained, useful to establish the type of interaction of both compounds under study. Dose-response curves (DRC) are constructed to obtain the ED30's of each active principle. At least 4 doses of each active principle are administered by IM injection to at least 6 animals. […] Before the test, the drugs were diluted and mixed for intramuscular administration. […] This dose was statistically compared to the dose that theoretically is the simple addition of effects, and which can be obtained with the following formula: […] Where R is the potency ratio of drugs 1 and 2 administered alone; P1 is the proportion of drug 1 in the mixture; P2 is the proportion of drug 2 in the mixture. […] The interaction type is determined by the graph region where the experimental value is located in relation to the theoretical value. If the value lies below the additivity line and is statistically different from the theoretical value, then the interaction is synergic (an effect greater than the sum of effects of each drug); if the value lies near the additivity line and is not statistically different from the theoretical value, then the interaction is only additive (an effect equal to the sum of effects of each drug). If the value lies […] and is statistically different from the theoretical value, then the interaction is subadditive or antagonistic. A software calculates the interaction index (I.I.) of two drugs, obtained with the following formula: I.I.=Experimental ED30/theoretical ED30 If the index is less than 1.0, then the interaction is synergic; if it is equal to 1.0, the interaction is additive, and if it is greater than 1.0, the interaction is antagonistic. For twelve hours before the experimental preclinical phase, rats fasted but had free access to water. […] The results are expressed as the average±standard error (SE) of at least 6 rats per group. The number of hind paw shakes/minute was graphed vs. time. The area under the curve (AUC) of temporal courses is a global expression of the effect intensity and duration, and was calculated with the trapezoid method. The antinoception percentage (%) was calculated with the following formula: % Antinociception=((Vehicle-Compound)/Vehicle)×100. The AUC's and % antinociception were evaluated by means of an analysis of variance (ANOVA) and a Tukey's test. Results with P<0.05 were considered statistically significant.
# [2] = cited from earlier work
Structure (SMILES),dose giving maximal antinociception effect [1] [mg/kg],dose reaching a significant difference in % antinociception [1] [mg/kg],"number of shakes in phase 2 of the formalin test, expressed as % antinociception [1]",ED30 (dose delivering 30% of the maximal effect) [1] [mg/kg],ED30 (dose delivering 30% of the maximal effect) ([1]; listed as aceclofenac) [mg/kg],ED30 (dose delivering 30% of the maximal effect) ([1]; listed as betamethasone) [mg/kg],solubility in water [2]
"O=C(O)COC(=O)Cc1ccccc1Nc1c(Cl)cccc1Cl [Aceclofenac, [(2-{2,6-dichlorophenyl)amino}phenylacetooxyacetic acid]]",31.6,17.7,decreased in a dose-dependent way,1.8662,13.472,,
"C[C@H]1C[C@H]2[C@@H]3CCC4=CC(=O)C=C[C@]4(C)[C@@]3(F)[C@@H](O)C[C@]2(C)[C@@]1(O)C(=O)CO [Betamethasone, (11β,16β)-9-Fluoro-11,17,21-trihydroxy-16-methylpregna-1,4-diene-3,20-dione]",31.6,17.7,decreased in a dose-dependent way,13.4722,,13.472,insoluble in water
